Laboratory results: PubChem BioAssay (NCI)
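Assay format: 96-well plates, 48-hour exposure. Here, GI50 denotes the concentration required for 50% inhibition of growth. TGI denotes the concentration required for complete inhibition of growth.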

How the values were obtained:
Assay in all cases: DTP human tumour cell line panel, 48 h
HS 578T breast = system: HS 578T breast
MDA-MB-231 breast = system: MDA-MB-231 breast
MALME-3M melanoma = system: MALME-3M melanoma
SK-MEL-2 melanoma = system: SK-MEL-2 melanoma
TK-10 renal = system: TK-10 renal
NCI/ADR-RES ovarian = system: NCI/ADR-RES ovarian
SK-MEL-5 melanoma = system: SK-MEL-5 melanoma
NCI-H226 lung = system: NCI-H226 lung
SNB-19 CNS = system: SNB-19 CNS
MOLT-4 leukemia = system: MOLT-4 leukemia
UO-31 renal = system: UO-31 renal
UACC-62 melanoma = system: UACC-62 melanoma
RXF 393 renal = system: RXF 393 renal
IGROV1 ovarian = system: IGROV1 ovarian
HOP-62 NSCLC = system: HOP-62 NSCLC
HCC-2998 colon = system: HCC-2998 colon
OVCAR-5 ovarian = system: OVCAR-5 ovarian
MCF7 breast = system: MCF7 breast
A549 NSCLC = system: A549 NSCLC
ACHN renal = system: ACHN renal
U251 CNS = system: U251 CNS
SW-620 colon = system: SW-620 colon
SF-539 CNS = system: SF-539 CNS
HCT-15 colon = system: HCT-15 colon
UACC-257 melanoma = system: UACC-257 melanoma
T-47D breast = system: T-47D breast
SNB-75 CNS = system: SNB-75 CNS
M14 melanoma = system: M14 melanoma
HT29 colon = system: HT29 colon
DU-145 prostate = system: DU-145 prostate
SF-295 CNS = system: SF-295 CNS
SK-OV-3 ovarian = system: SK-OV-3 ovarian
SK-MEL-28 melanoma = system: SK-MEL-28 melanoma
COLO 205 colon = system: COLO 205 colon
NCI-H23 lung = system: NCI-H23 lung
HCT-116 colon = system: HCT-116 colon
NCI-H522 lung = system: NCI-H522 lung
SF-268 CNS = system: SF-268 CNS
NCI-H460 lung = system: NCI-H460 lung
786-0 renal = system: 786-0 renal
LOX IMVI melanoma = system: LOX IMVI melanoma
RPMI-8226 leukemia = system: RPMI-8226 leukemia
BT-549 breast = system: BT-549 breast
OVCAR-3 ovarian = system: OVCAR-3 ovarian
MDA-MB-435 = system: MDA-MB-435
K-562 leukemia = system: K-562 leukemia
CCRF-CEM leukemia = system: CCRF-CEM leukemia
EKVX NSCLC = system: EKVX NSCLC
PC-3 prostate = system: PC-3 prostate
OVCAR-4 ovarian = system: OVCAR-4 ovarian
HL-60(TB) leukemia = system: HL-60(TB) leukemia
A498 renal = system: A498 renal
OVCAR-8 ovarian = system: OVCAR-8 ovarian
HOP-92 NSCLC = system: HOP-92 NSCLC
SN12C renal = system: SN12C renal
CAKI-1 renal = system: CAKI-1 renal
SR leukemia = system: SR leukemia
KM12 colon = system: KM12 colon

## COc1cc(/C=C\c2cc(/C=C\c3ccc(O)c(OC)c3)n(C(=O)COc3ccccc3)n2)ccc1O
HS 578T breast
  GI50: 1120 nM
  TGI: 6840 nM
MDA-MB-231 breast
  GI50: 2380 nM
  TGI: 15300 nM
MALME-3M melanoma
  GI50: 585 nM
  TGI: 3710 nM
SK-MEL-2 melanoma
  GI50: 661 nM
  TGI: 3560 nM
TK-10 renal
  GI50: 2910 nM
  TGI: 10900 nM
NCI/ADR-RES ovarian
  GI50: 559 nM
  TGI: 11700 nM
SK-MEL-5 melanoma
  GI50: 834 nM
  TGI: 3520 nM
NCI-H226 lung
  GI50: 3150 nM
  TGI: 9940 nM
SNB-19 CNS
  GI50: 1360 nM
  TGI: 9590 nM
MOLT-4 leukemia
  GI50: 368 nM
  TGI: 3260 nM
UO-31 renal
  GI50: 302 nM
  TGI: 4120 nM
UACC-62 melanoma
  GI50: 326 nM
  TGI: 1270 nM
RXF 393 renal
  GI50: 1000 nM
  TGI: 2520 nM
IGROV1 ovarian
  GI50: 919 nM
  TGI: 8000 nM
HOP-62 NSCLC
  GI50: 1080 nM
  TGI: 4950 nM
HCC-2998 colon
  GI50: 2270 nM
  TGI: 10200 nM
OVCAR-5 ovarian
  GI50: 2750 nM
  TGI: 6810 nM
MCF7 breast
  GI50: 343 nM
  TGI: 2830 nM
A549 NSCLC
  GI50: 2420 nM
  TGI: 11100 nM
ACHN renal
  GI50: 490 nM
  TGI: 11100 nM
U251 CNS
  GI50: 564 nM
  TGI: 5960 nM
SW-620 colon
  GI50: 608 nM
  TGI: 9020 nM
SF-539 CNS
  GI50: 354 nM
  TGI: 2470 nM
HCT-15 colon
  GI50: 416 nM
  TGI: 7960 nM
UACC-257 melanoma
  GI50: 2210 nM
  TGI: 7340 nM
T-47D breast
  GI50: 1620 nM
  TGI: 6950 nM
SNB-75 CNS
  GI50: 822 nM
  TGI: 5300 nM
M14 melanoma
  GI50: 343 nM
  TGI: 2680 nM
HT29 colon
  GI50: 2670 nM
  TGI: 6350 nM
DU-145 prostate
  GI50: 1370 nM
  TGI: 8060 nM
SF-295 CNS
  GI50: 2780 nM
  TGI: 7700 nM
SK-OV-3 ovarian
  GI50: 1530 nM
  TGI: 3450 nM
SK-MEL-28 melanoma
  GI50: 1120 nM
  TGI: 10400 nM
COLO 205 colon
  GI50: 1960 nM
  TGI: 3950 nM
NCI-H23 lung
  GI50: 1330 nM
  TGI: 6640 nM
HCT-116 colon
  GI50: 386 nM
  TGI: 10000 nM
NCI-H522 lung
  GI50: 304 nM
  TGI: 970 nM
SF-268 CNS
  GI50: 651 nM
  TGI: 5650 nM
NCI-H460 lung
  GI50: 1250 nM
  TGI: 10200 nM
786-0 renal
  GI50: 1060 nM
  TGI: 3580 nM
LOX IMVI melanoma
  GI50: 550 nM
  TGI: 3290 nM
RPMI-8226 leukemia
  GI50: 377 nM
  TGI: 2360 nM
BT-549 breast
  GI50: 571 nM
  TGI: 4030 nM
OVCAR-3 ovarian
  GI50: 552 nM
  TGI: 2770 nM
MDA-MB-435
  GI50: 210 nM
  TGI: 492 nM
K-562 leukemia
  GI50: 366 nM
  TGI: 10800 nM
CCRF-CEM leukemia
  GI50: 281 nM
  TGI: 1340 nM
EKVX NSCLC
  GI50: 2530 nM
  TGI: 10300 nM
PC-3 prostate
  GI50: 1600 nM
  TGI: > 100000 nM
OVCAR-4 ovarian
  GI50: 845 nM
  TGI: 12300 nM
HL-60(TB) leukemia
  GI50: 282 nM
  TGI: 901 nM
A498 renal
  GI50: 2680 nM
  TGI: 6490 nM
OVCAR-8 ovarian
  GI50: 2520 nM
  TGI: 8570 nM
HOP-92 NSCLC
  GI50: 3130 nM
  TGI: 20400 nM
SN12C renal
  GI50: 799 nM
  TGI: 7660 nM
CAKI-1 renal
  GI50: 657 nM
  TGI: 12400 nM
SR leukemia
  GI50: 318 nM
  TGI: 2460 nM
KM12 colon
  GI50: 500 nM
  TGI: 6810 nM
